# “Also recorded” adds a separate entry of the source.
# Key:
# NOTCH1 = NOTCH1 cell surface staining by flow cytometry; format: cell-based, human; conditions: T-ALL cells; for NOTCH1 expression on the cell surface: 24 hours
# Source text: We previously described that the SERCA inhibitors thapsigargin and cyclopiazonic acid impair NOTCH1 maturation leading to an accumulation of full-length, unprocessed polypeptides in the endoplasmic reticulum/Golgi subcellular compartment. An immediate consequence of SERCA inhibition is a decrement in NOTCH1 protein display on the surface of T-ALL cells. […] To further support the hypothesis that Thap-OH impairs mutant NOTCH1 maturation, we evaluated levels of full-length, transmembrane and activated NOTCH1 (ICN1) by WB. Lysates from T-ALL cell lines treated with 1 μM Thap-OH were immunoblotted with an antibody specific for the cytoplasmic portion of NOTCH1 that recognizes both unprocessed NOTCH1 (FL-N1) (˜270 kDa) and the furin-processed transmembrane subunit (TM-N1) (˜110 kDa).
# (§1) The NOTCH loss was measured via flow cytometry. […] The recapitulation of the thapsigargin effect by JQ-FT is hypothesized to be due to the delivery strategy introduced by folate. […] Here cell growth was assessed using the Promega Cell-Titer Glo ATP-based assay (Promega, Madison, Wis., USA). Luminescence was measured using a Fluostar Omega instrument (BMG-labtech, Ortenberg, Germany).
# T-ALL cell lines = experiment: T-ALL cell viability / growth (ATP content, Cell-Titer Glo); format: cell-based, human; conditions: for cell growth / proliferation: T-ALL cell lines, 10 μM
# Method: Thus, cell lines carrying NOTCH1 alleles with HD domain, mutations were more sensitive to Thap-OH than cells with WT NOTCH1 alleles.
# As a further test of the idea that JQ-FT acts by preventing NOTCH1 activation in a manner similar to thapsigargin, the NOTCH1-dependent T-ALL cell lines RPMI-8402 were transduced with empty MigRI vector or with ICN1, which lies downstream of the γ-secretase cleavage step in Notch activation. Viral supernatant production and retroviral infections were performed as described for MigRI retroviral vectors (Aster, J. C., et al. “Essential roles for ankyrin repeat and transactivation domains in induction of T-cell leukemia by NOTCH1.” Mol. Cell. Biol. 2000; 20:7505-7515). Transduction efficiency for MigRI was monitored by assessing GFP expression with a FACScan flow cytometer (BD, Franklin Lakes, N.J., USA) (Aster et al., Mol. Cell. Biol. 2000; 20:7505-7515). After viral infection, GFP-positive cells were sorted by flow cytometry with a FACSAria II (BD, Franklin Lakes, N.J., USA). […] Therefore, JQ-FT can recapitulate the Thapsigargin effect with the delivery mechanism of folate.
# as §1
# The effects of JQ-FT in a panel of T-ALL cell lines that contain activating mutations in the HD domain of NOTCH1 and/or protein stabilizing deletions within the PEST degradation domain.
# NOTCH1 target genes = experiment: NOTCH1 target gene expression by RT-PCR in T-ALL cell lines; format: cell-based, human; conditions: T-ALL cells (ALL/SIL, DND41), 24 hours
# Method: Errors bars denote mean±SD of 4 replicates. […] The blot was stained with an antibody against the C-terminus of NOTCH1 that recognizes both the furin-processed NOTCH1 transmembrane subunit (TM) and the unprocessed NOTCH1 precursor (FL). The immunoblot was also stained with anti-ICN1 antibody. GAPDH was used as a loading control. […] Error bars indicate the mean±SD of 4 replicates. Data were analyzed using the ΔΔCT method and plotted as a percentage relative to the control gene RPL13A. Statistical significance among groups for treated vs. vehicle (DMSO) samples (***P≤0.0001) was determined by one-way ANOVA with Bonferroni's correction for multiple comparison testing. […] The blot was stained with an antibody against the C-terminus of NOTCH1 (N1) that recognizes both the furin-processed NOTCH1 transmembrane subunit (TM). GAPDH was used as a loading control. […] Cells were probed with an anti-NOTCH1 antibody (green) and nuclei were counterstained with DAPI. […] Error bars indicate the mean±SD of 4 replicates. Data were analyzed using the ΔΔCT method and plotted as a percentage relative to the control gene RPL13A. Statistical significance (***P≤0.001. ****P≤0.0001) for treated vs. vehicle (DMSO) was determined by one-way ANOVA with Bonferroni's correction for multiple comparison testing. […]
# PDX T-ALL cells = experiment: JQ-FT treatment of patient-derived xenograft (PDX) T-ALL cells in vitro; format: cell-based, human
# Method: Errors bars denote mean±SD of 4 replicates. […] The blot was stained with an antibody against the C-terminus of NOTCH1 that recognizes both the furin-processed NOTCH1 transmembrane subunit (TM) and the unprocessed NOTCH1 precursor (FL). The immunoblot was also stained with anti-ICN1 antibody. GAPDH was used as a loading control. […] Error bars indicate the mean±SD of 4 replicates. Data were analyzed using the ΔΔCT method and plotted as a percentage relative to the control gene RPL13A. Statistical significance among groups for treated vs. vehicle (DMSO) samples (***P≤0.0001) was determined by one-way ANOVA with Bonferroni's correction for multiple comparison testing. […] The blot was stained with an antibody against the C-terminus of NOTCH1 (N1) that recognizes both the furin-processed NOTCH1 transmembrane subunit (TM). GAPDH was used as a loading control. […] Cells were probed with an anti-NOTCH1 antibody (green) and nuclei were counterstained with DAPI. […] Error bars indicate the mean±SD of 4 replicates. Data were analyzed using the ΔΔCT method and plotted as a percentage relative to the control gene RPL13A. Statistical significance (***P≤0.001. ****P≤0.0001) for treated vs. vehicle (DMSO) was determined by one-way ANOVA with Bonferroni's correction for multiple comparison testing.
# To assess the translational significance of these findings, we studied patient-derived xenografts (PDX) from T-ALL patients at the Dana-Farber Cancer Institute.
# [1] = Maximal tolerated dose in mice; format: in vivo
# Method: Though the JQ-FT conjugate has not, as yet, been optimized for pharmacologic properties, we are eager to explore the utility of the compound as an in vivo chemical probe, while assessing putative tolerability of folate-conjugated thapsigargins. We first established the maximal tolerated dose (MTD) of JQ-FT as 60 mg/kg/day in mice, as administered by daily intraperitoneal injection. […] We therefore initiated treatment studies of JQ-FT (60 mg/kg IP daily) in mice with established T-ALL.
# [2] = NOTCH1-mutated PDX cells, 24 hours
smiles,measurement,setting,value
C/C=C(/C)C(=O)O[C@H]1C(C)=C2C([C@@H]1OC(=O)CCCCCCC)[C@@](C)(OC(C)=O)C[C@H](OC(=O)CC[C@H](NC(=O)c1ccc(NCc3cnc4nc(N)[nH]c(=O)c4n3)cc1)C(=O)O)[C@@]1(O)[C@H]2OC(=O)[C@@]1(C)O (some centres unmarked) [JQ-FT],effect on cell surface NOTCH1 compared with thapsigargin,NOTCH1,more similar to thapsigargin at 20 uM
same,NOTCH1 expression on the cell surface,NOTCH1,show NOTCH loss
same,NOTCH1 expression on the cell surface,NOTCH1; listed as Folate-Thap,loss of Notch in a manner similar to thapsigargin
same,rescue of loss of viability by exogenous ICN1,T-ALL cell lines; RPMI 8402 transduced with MigR1-ICN1 vs empty vector,overexpressing an exogenous ICN1 partially rescues the observed phenotype; also recorded: attenuated the growth inhibitory effects of JQ-FT
same,cell growth / proliferation,T-ALL cell lines,impaired cell growth
same,cell growth / proliferation,T-ALL cell lines; listed as Folate-Thap,antiproliferation effect; also recorded: arrest of cell proliferation
same,NOTCH1 target gene expression,NOTCH1 target genes,suppression of NOTCH1 target genes
same,ICN1 in NOTCH1-mutated PDX cells,PDX T-ALL cells; [2],depletion of detectable ICN1
same,transmembrane NOTCH1 in NOTCH1-mutated PDX cells,PDX T-ALL cells; [2],loss of transmembrane NOTCH1
same,expression of NOTCH1 target genes DTX and MYC in NOTCH1 mutant PDX samples,"PDX T-ALL cells; NOTCH1 mutant samples, 24 hours",decreased
same,NOTCH1 processing in WT NOTCH1 PDX cells,PDX T-ALL cells; PDX T-ALL cells possessing WT NOTCH1,no effect was observed
same,NOTCH1 target gene transcription in WT PDX samples,"PDX T-ALL cells; WT PDX samples, 24 hours",no transcriptional changes were observed
same,MTD relative to MTD of unconjugated thapsigargin,[1],150 fold
same,MTD,"[1]; mouse, in vivo, ip, daily intraperitoneal injection",60 mg/kg/day

# Reference: patent US10525139B2, “Folate-conjugated molecules for delivery of toxic small molecule inhibitors to cancer cells and methods of use” (priority 2014, dated 2020)
